Assay results: PubChem BioAssay AID330 (DTP/NCI, 2004)
Several values for one entry are separate records, joined by “and”; a condition that tells them apart may be missing. Equal values may be shown once. Toxic doses and inconclusive results are not listed.

Tested on: P388 leukemia ip, CD2F1 mice, survival T/C
Assay: NCI In Vivo Anticancer Drug Screen. Data for tumor model P388 Leukemia (intraperitoneal) in CD2F1 (CDF1) mice
Conditions: endpoint: median survival time, higher = longer survival
How it was run: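 Mice carrying the transplanted tumor received test compound or vehicle. Survival was recorded in each group, and the value is the treated-group measurement divided by that of the vehicle-treated control group.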

[1] = dose: 14.0 mg/kg/injection, schedule: Q01DX005 (ip), vehicle: Klucel (hydroxypropylcellulose) (HPC)
[2] = dose: 12.5 mg/kg/injection, schedule: Q01DX009 (ip), vehicle: saline with Tween-80
[3] = dose: 25.0 mg/kg/injection, schedule: Q01DX009 (ip), vehicle: saline with Tween-80
[4] = dose: 50.0 mg/kg/injection, schedule: Q01DX009 (ip), vehicle: saline with Tween-80
[5] = dose: 100.0 mg/kg/injection, schedule: Q01DX009 (ip), vehicle: saline with Tween-80
[6] = dose: 100.0 mg/kg/injection, schedule: Q04DX002 (ip), vehicle: saline with Tween-80
[7] = dose: 200.0 mg/kg/injection, schedule: Q04DX002 (ip), vehicle: saline with Tween-80
[8] = dose: 50.0 mg/kg/injection, schedule: Q01DX005 (ip), vehicle: saline with Tween-80
[9] = dose: 100.0 mg/kg/injection, schedule: Q01DX005 (ip), vehicle: saline with Tween-80
[10] = dose: 200.0 mg/kg/injection, schedule: Q01DX005 (ip), vehicle: saline with Tween-80
[11] = dose: 0.78 mg/kg/injection, schedule: Q01DX009 (ip), vehicle: saline
[12] = dose: 1.56 mg/kg/injection, schedule: Q01DX009 (ip), vehicle: saline
[13] = dose: 3.13 mg/kg/injection, schedule: Q01DX009 (ip), vehicle: saline
[14] = dose: 100.0 mg/kg/injection, schedule: Q04DX003 (ip), vehicle: saline with Tween-80
[15] = dose: 200.0 mg/kg/injection, schedule: Q04DX003 (ip), vehicle: saline with Tween-80
[16] = dose: 50.0 mg/kg/injection, schedule: Q04DX003 (ip), vehicle: saline with Tween-80
[17] = dose: 12.5 mg/kg/injection, schedule: Q01DX005 (ip), vehicle: Klucel (hydroxypropylcellulose) (HPC)
[18] = dose: 25.0 mg/kg/injection, schedule: Q01DX005 (ip), vehicle: Klucel (hydroxypropylcellulose) (HPC)
[19] = dose: 50.0 mg/kg/injection, schedule: Q01DX005 (ip), vehicle: Klucel (hydroxypropylcellulose) (HPC)

## CC1=C(CO)C(=O)OC(C(C)C2CCC3C4CC5OC56C(O)C(N5CCCCC5)CC(=O)C6(C)C4CCC23C)C1 (centres undefined)
dose: 7.0 mg/kg/injection, schedule: Q01DX005 (ip), vehicle: Klucel (hydroxypropylcellulose) (HPC)
  T/C: 101 % of control
[1]
  T/C: 94 % of control
dose: 28.0 mg/kg/injection, schedule: Q01DX005 (ip), vehicle: Klucel (hydroxypropylcellulose) (HPC)
  T/C: 96 % of control
dose: 56.0 mg/kg/injection, schedule: Q01DX005 (ip), vehicle: Klucel (hydroxypropylcellulose) (HPC)
  T/C: 101 % of control
dose: 112.0 mg/kg/injection, schedule: Q01DX005 (ip), vehicle: Klucel (hydroxypropylcellulose) (HPC)
  T/C: 97 % of control

## COC(=O)c1cc2cccn2cn1
[2]
  T/C: 115 % of control
[3]
  T/C: 115 % of control
[4]
  T/C: 104 % of control
[5]
  T/C: 91 % of control
dose: 200.0 mg/kg/injection, schedule: Q01DX009 (ip), vehicle: saline with Tween-80
  T/C: 100 % of control

## O=[N+]([O-])c1cc2[nH]cnc2c([N+](=O)[O-])c1NCc1ccccc1
[6]
  T/C: 98 % of control
[7]
  T/C: 97 % of control

## O=C(O)c1cccc(C(=O)O)c1S(=O)(=O)c1ccccc1
dose: 100.0 mg/kg/injection, schedule: Q01DX001 (ip), vehicle: saline with Tween-80
  T/C: 99 % of control
dose: 200.0 mg/kg/injection, schedule: Q01DX001 (ip), vehicle: saline with Tween-80
  T/C: 98 % of control
dose: 400.0 mg/kg/injection, schedule: Q01DX001 (ip), vehicle: saline with Tween-80
  T/C: 95 % of control

## COc1cccc(/C=C/c2ccnnc2)c1OC
dose: 50.0 mg/kg/injection, schedule: Q01DX009 (ip), vehicle: saline
  T/C: 104 % of control
dose: 100.0 mg/kg/injection, schedule: Q01DX009 (ip), vehicle: saline
  T/C: 108 % of control
dose: 200.0 mg/kg/injection, schedule: Q01DX009 (ip), vehicle: saline
  T/C: 100 % of control

## O=c1c2cc3c(=O)n(CC#CCN4CCCCC4)c(=O)c3cc2c(=O)n1CC#CCN1CCCCC1
[8]
  T/C: 100 % of control
[9]
  T/C: 100 % of control
[10]
  T/C: 98 % of control

## C/C=C/C[P+](Cc1cccc(C)c1)(c1ccccc1)c1ccccc1
[11]
  T/C: 101 % of control
[12]
  T/C: 95 % of control
[13]
  T/C: 111 % of control

## Cc1c2ccnc(C#N)c2c(C)c2c1[nH]c1ccccc12
dose: 0.78 mg/kg/injection, schedule: Q04DX003 (ip), vehicle: distilled water + Tween-80
  T/C: 91 % of control
dose: 1.56 mg/kg/injection, schedule: Q04DX003 (ip), vehicle: distilled water + Tween-80
  T/C: 97 % of control
dose: 3.13 mg/kg/injection, schedule: Q04DX003 (ip), vehicle: distilled water + Tween-80
  T/C: 97 % of control
dose: 6.25 mg/kg/injection, schedule: Q04DX003 (ip), vehicle: distilled water + Tween-80
  T/C: 87 % of control and 88 % of control

## CN(O)C1(/C(N)=N/O)C(C2COC(C)(C)O2)OC2OC(C)(C)OC21 (centres undefined)
dose: 100.0 mg/kg/injection, schedule: Q04DX002 (ip), vehicle: Klucel (hydroxypropylcellulose) (HPC)
  T/C: 106 % of control
dose: 200.0 mg/kg/injection, schedule: Q04DX002 (ip), vehicle: Klucel (hydroxypropylcellulose) (HPC)
  T/C: 106 % of control
dose: 400.0 mg/kg/injection, schedule: Q04DX002 (ip), vehicle: Klucel (hydroxypropylcellulose) (HPC)
  T/C: 105 % of control

## COC(=O)c1ccc(COc2ccc([N+](=O)[O-])cc2Cl)cc1
[8]
  T/C: 100 % of control
[9]
  T/C: 104 % of control
[14]
  T/C: 105 % of control
[10]
  T/C: 104 % of control
[15]
  T/C: 105 % of control
dose: 400.0 mg/kg/injection, schedule: Q04DX003 (ip), vehicle: saline with Tween-80
  T/C: 103 % of control

## CCCCCCC(Cn1ccnc1)c1ccccc1Cl (centres undefined)
dose: 25.0 mg/kg/injection, schedule: Q04DX003 (ip), vehicle: saline with Tween-80
  T/C: 100 % of control
[16]
  T/C: 98 % of control
[14]
  T/C: 106 % of control

## CCCCCCCCCCCCCCCCCC(=O)[O][Sn]([CH2]CCC)([CH2]CCC)[O]C(=O)CCCCCCCCCCCCCCCCC
dose: 2.66 mg/kg/injection, schedule: Q04DX003 (ip), vehicle: other
  T/C: 109 % of control
dose: 4.0 mg/kg/injection, schedule: Q04DX003 (ip), vehicle: other
  T/C: 106 % of control
dose: 6.0 mg/kg/injection, schedule: Q04DX003 (ip), vehicle: other
  T/C: 109 % of control
dose: 9.0 mg/kg/injection, schedule: Q04DX003 (ip), vehicle: other
  T/C: 110 % of control

## O=S1(=O)CS(=O)(=O)OCCO1
dose: 3.12 mg/kg/injection, schedule: Q01DX005 (ip), vehicle: Klucel (hydroxypropylcellulose) (HPC)
  T/C: 124 % of control
dose: 6.25 mg/kg/injection, schedule: Q01DX005 (ip), vehicle: Klucel (hydroxypropylcellulose) (HPC)
  T/C: 155 % of control
dose: 9.0 mg/kg/injection, schedule: Q01DX005 (ip), vehicle: Klucel (hydroxypropylcellulose) (HPC)
  T/C: 162 % of control and 165 % of control
[17]
  T/C: 216 % of control
[1]
  T/C: 191 % of control (2×) and 200 % of control
[18]
  T/C: 267 % of control and 270 % of control
dose: 75.0 mg/kg/injection, schedule: Q01DX005 (ip), vehicle: Klucel (hydroxypropylcellulose) (HPC)
  T/C: 207 % of control and 588 % of control

## C/C=C/C[P+](CC)(c1ccccc1)c1ccccc1
[11]
  T/C: 103 % of control
[12]
  T/C: 97 % of control
[13]
  T/C: 112 % of control

## CC(=O)c1ccc(Nc2cc(C)nc(N)n2)cc1
dose: 15.0 mg/kg/injection, schedule: Q01DX005 (ip), vehicle: saline with Tween-80
  T/C: 103 % of control
dose: 30.0 mg/kg/injection, schedule: Q01DX005 (ip), vehicle: saline with Tween-80
  T/C: 104 % of control
dose: 60.0 mg/kg/injection, schedule: Q01DX005 (ip), vehicle: saline with Tween-80
  T/C: 100 % of control and 105 % of control
[6]
  T/C: 112 % of control
[7]
  T/C: 96 % of control
dose: 400.0 mg/kg/injection, schedule: Q04DX002 (ip), vehicle: saline with Tween-80
  T/C: 99 % of control

## CCOC(=O)Nc1ccc(S(=O)(=O)c2ccc(Nc3ccnc4cc(Cl)ccc34)cc2)cc1
[19]
  T/C: 94 % of control
dose: 100.0 mg/kg/injection, schedule: Q01DX005 (ip), vehicle: Klucel (hydroxypropylcellulose) (HPC)
  T/C: 98 % of control
dose: 200.0 mg/kg/injection, schedule: Q01DX005 (ip), vehicle: Klucel (hydroxypropylcellulose) (HPC)
  T/C: 91 % of control

## Nc1ccc(NC(=O)c2cc(Cl)cc(Cl)c2O)c(Cl)c1
[4]
  T/C: 107 % of control
[5]
  T/C: 114 % of control

## Cc1ccc(C(SCC(N)C(=O)O)(c2ccccc2)c2ccccc2)cc1 (centres undefined)
[2]
  T/C: 186 % of control
[3]
  T/C: 168 % of control
[16]
  T/C: 177 % of control
[14]
  T/C: 218 % of control
dose: 132.0 mg/kg/injection, schedule: Q04DX003 (ip), vehicle: saline with Tween-80
  T/C: 195 % of control
[15]
  T/C: 254 % of control and 272 % of control
dose: 300.0 mg/kg/injection, schedule: Q04DX003 (ip), vehicle: saline with Tween-80
  T/C: 263 % of control

## CCOCc1c(-c2ccccc2)sc2ccccc2c1=O
dose: 60.0 mg/kg/injection, schedule: Q01DX005 (ip), vehicle: Klucel (hydroxypropylcellulose) (HPC)
  T/C: 98 % of control
dose: 120.0 mg/kg/injection, schedule: Q01DX005 (ip), vehicle: Klucel (hydroxypropylcellulose) (HPC)
  T/C: 95 % of control
dose: 240.0 mg/kg/injection, schedule: Q01DX005 (ip), vehicle: Klucel (hydroxypropylcellulose) (HPC)
  T/C: 92 % of control

## CCN(CC)CCNc1cccc2c(SC)ccnc12
[8]
  T/C: 101 % of control
[9]
  T/C: 104 % of control
[10]
  T/C: 101 % of control

## O=C(/C=C/c1ccc(OCc2ccccc2)cc1)c1cccc([N+](=O)[O-])c1
dose: 50.0 mg/kg/injection, schedule: Q01DX009 (ip), vehicle: saline + alcohol
  T/C: 100 % of control
dose: 100.0 mg/kg/injection, schedule: Q01DX009 (ip), vehicle: saline + alcohol
  T/C: 92 % of control
dose: 200.0 mg/kg/injection, schedule: Q01DX009 (ip), vehicle: saline + alcohol
  T/C: 89 % of control

## O=Cc1ccccc1/C=C/C(=O)/C=C/c1ccccc1C=O
[17]
  T/C: 105 % of control
[18]
  T/C: 105 % of control
[19]
  T/C: 107 % of control and 110 % of control
